Assay results taken from patent publication EP2340832A1, “Morphinan-6-one compounds for the treatment or prevention of neurodegenerative diseases” (Universität Innsbruck, priority 2009, dated 2011).
Like-named read-outs stand apart in the source and are kept apart here.

Legend:
[1] = molecular target: σ receptors labelled by [^3H]DTG (σ1 + σ2); test: Sigma receptor binding assay, [3H]DTG; details: read-out: IC50 ± SEM [^3H]DTG (σ1 + σ2); guinea pig brain membranes; compounds 1-5 tested up to 10 µM
Method: (§1) Filters were washed three times with 5 ml of ice-cold 10 mM Tris-HCI buffer (pH 8). The bound radioactivity was measured by liquid scintillation counting (Beckman Coulter™ LS6500). […] The values are expressed as the mean ± S.E.M of 2 - 4 independent experiments, each performed in duplicate.

[2] = molecular target: T1, µ opioid receptor (Rattus norvegicus, UniProt P33535); test: [35S]GTPγS functional assay, rat brain membranes, µ receptor; format: biochemical, Sprague-Dawley rat; design: Membrane fractions were prepared from Sprague-Dawley rat or guinea pig brains; from tissue; host or cells: Sprague-Dawley rat brain (without cerebella) membranes
T1 sequence (P33535 whole entry): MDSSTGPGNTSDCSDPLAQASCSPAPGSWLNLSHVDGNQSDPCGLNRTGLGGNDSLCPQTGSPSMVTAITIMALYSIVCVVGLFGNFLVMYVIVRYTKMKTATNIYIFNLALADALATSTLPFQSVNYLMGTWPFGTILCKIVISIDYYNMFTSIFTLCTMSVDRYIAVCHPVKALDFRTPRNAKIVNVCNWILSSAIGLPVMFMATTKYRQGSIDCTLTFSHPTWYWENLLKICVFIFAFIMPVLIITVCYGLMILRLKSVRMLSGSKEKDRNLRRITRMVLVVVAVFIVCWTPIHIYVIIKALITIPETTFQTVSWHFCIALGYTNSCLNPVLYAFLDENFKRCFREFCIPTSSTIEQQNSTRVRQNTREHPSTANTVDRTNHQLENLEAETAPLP
Method: (§2) Membrane fractions were prepared from Sprague-Dawley rat or guinea pig brains as described above. To determine binding of [^35S]GTPyS, rat or guinea pig brain membranes (10 µg of protein) were incubated for 60 min at 30 °C in Tris-EGTA buffer (50 mM Tris-HCl buffer, 3 mM MgCl2, 1 mM EGTA, […], pH 7.4) containing 30 µM GDP, 0.05 nM [^35S]GTPyS and appropriate concentrations of the respective compounds according to the present invention in a final volume of 1 ml. The reaction was terminated by vacuum filtration through Whatman GF/B glass fibre filters. Filters were washed three times with ice-cold 50 mM Tris-HCI buffer (pH 7.4) and the bound radioactivity was measured by liquid scintillation counting (Beckman Coulter™ LS6500). Basal activity was determined by subtracting the non-specific binding (measured in the presence of 100 µM unlabelled GTPyS) from the total binding (measured in the absence of the compound).
(§3) Stimulation produced by the compound is given as percentage of the basal activity (given as 100%). Functional data, EC50 (nM; half maximal effective concentration) and maximal stimulation Emax (% stimulation over basal level; maximal effective concentration), were calculated by using nonlinear regression analysis and sigmoidal curve fitting GraphPad Prism (San Diego, CA, USA) program. The values are expressed as the mean ± S.E.M of at least 3 independent experiments, each performed in triplicate. Statistical analysis was carried out using SPSS software (SPSS Inc., Chicago, lL, USA) and the Student T-test was used to compare different assay conditions. A ρ value < 0.05 was considered statistically significant.

[3] = molecular target: T2, δ receptor (Rattus norvegicus, UniProt P33533); test: [35S]GTPγS functional assay, rat brain membranes, δ receptor; format: biochemical, Sprague-Dawley rat
T2 construct: Membrane fractions were prepared from Sprague-Dawley rat or guinea pig brains; from tissue; host or cells: Sprague-Dawley rat brain (without cerebella) membranes
T2 sequence (P33533 whole entry): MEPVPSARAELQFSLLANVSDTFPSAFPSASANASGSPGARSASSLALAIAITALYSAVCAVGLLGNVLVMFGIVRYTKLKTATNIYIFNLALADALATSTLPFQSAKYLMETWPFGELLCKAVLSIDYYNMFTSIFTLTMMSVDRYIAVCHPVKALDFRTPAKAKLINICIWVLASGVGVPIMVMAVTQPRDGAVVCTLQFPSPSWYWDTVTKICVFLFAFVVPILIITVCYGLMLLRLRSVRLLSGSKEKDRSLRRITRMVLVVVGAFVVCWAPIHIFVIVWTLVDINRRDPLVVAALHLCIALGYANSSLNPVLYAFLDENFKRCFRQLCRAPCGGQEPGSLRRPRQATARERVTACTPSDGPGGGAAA
Method: as §2, §3

[4] = molecular target: T3, δ opioid receptors (Rattus norvegicus, UniProt P33533); test: Opioid receptor binding assay, [3H][Ile5,6]deltorphin II, rat brain membranes; design: species or system Sprague-Dawley rat
T3 construct: Membrane fractions were prepared from Sprague-Dawley rat or guinea pig brains; from tissue; host or cells: Sprague-Dawley rat brain (without cerebella) membranes
T3 sequence (P33533 whole entry): as above
Method: (§4) Briefly, brains without cerebella were homogenised on ice in 5 volumes of ice-cold 50 mM Tris-HCI buffer (pH 7.4) and diluted in 30 volumes of the same buffer. After centrifugation at 40,000 x g for 20 min at 4°C, the pellets were resuspended in 30 volumes of Tris-HCI buffer and incubated at 37 °C for 30 min (rat brain) or for 10 min (guinea pig brain). The centrifugation step was repeated and the final pellets were resuspended in 5 volumes of 50 mM Tris-HCI buffer (pH 7.4) containing 0.32 M sucrose to give a protein concentration of 4 - 6 mg/ml. Protein concentration was determined by the method of Bradford using bovine serum albumin as standard.
(§5) Binding experiments were performed in 50 mM Tris-HCI buffer (pH 7.4) in a final volume of 1 ml containing 0.3 - 0.5 mg protein and different concentrations of the compounds. […] Guinea pig brain membranes were incubated with [^3H]U69,593 (30 min, 30 °C). Non-specific binding was determined in the presence of 10 µM unlabeled naloxone. […] Inhibition constant (Ki) values were calculated from competition binding curves using GraphPad Prism (San Diego, CA, USA) program. The values are expressed as the mean ± S.E.M of 2-4 independent experiments, each performed in duplicate.
(§6) The morphinan-6-one compounds of the present invention were evaluated in in vitro receptor binding assays for their interaction abilities with µ, δ and k opioid receptors. […] The affinities of the compounds at k opioid receptors were determined by displacement of [^3H]U69,593 using guinea pig brain membranes.

[5] = molecular target: T4, k opioid receptors (Cavia porcellus, UniProt P41144); test: Opioid receptor binding assay, [3H]U69,593, guinea pig brain membranes
T4 construct: Membrane fractions were prepared from Sprague-Dawley rat or guinea pig brains; from tissue; host or cells: guinea pig brain (without cerebella) membranes
T4 sequence (P41144 whole entry): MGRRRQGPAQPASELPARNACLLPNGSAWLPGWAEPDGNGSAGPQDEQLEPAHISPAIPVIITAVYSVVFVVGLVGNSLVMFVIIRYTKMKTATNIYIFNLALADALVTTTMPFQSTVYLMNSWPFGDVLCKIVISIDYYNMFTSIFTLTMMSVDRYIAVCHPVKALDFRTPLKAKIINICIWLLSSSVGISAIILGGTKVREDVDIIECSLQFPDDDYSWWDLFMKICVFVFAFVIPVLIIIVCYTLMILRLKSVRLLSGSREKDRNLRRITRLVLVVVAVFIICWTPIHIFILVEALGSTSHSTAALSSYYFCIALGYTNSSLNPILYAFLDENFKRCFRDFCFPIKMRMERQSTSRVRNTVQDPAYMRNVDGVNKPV
Method: as §4, §5, §6

[6] = molecular target: T1, µ opioid receptor; test: Opioid receptor binding assay, [3H]DAMGO, rat brain membranes; design: Membrane fractions were prepared from Sprague-Dawley rat or guinea pig brains; from tissue; host or cells: Sprague-Dawley rat brain (without cerebella) membranes; species or system Sprague-Dawley rat
Method: as §4, §5, §6

[7] = system: C57BL/6N female mice; test: Object recognition task; details: normal mice, 0.03 µmol i.c.v.
[8] = system: C57BL/6N female mice; test: T-maze continuous alternation; details: normal mice
[9] = molecular target: T5, K receptor (Cavia porcellus, UniProt P41144); format: biochemical, guinea pig
T5 construct: Membrane fractions were prepared from Sprague-Dawley rat or guinea pig brains; from tissue; host or cells: guinea pig brain (without cerebella) membranes
T5 sequence (P41144 whole entry): as above

[10] = system: frontal cortex synaptosomes; test: ACh release from synaptosomes (15 mM K+-evoked [3H]-ACh release, superfusion); format: cell-based, male Sprague Dawley rats; details: 15 mM K+
Method: Preparation of synaptosomes: synaptosomes were prepared from brain frontal cortex of male Sprague Dawley rats (4 months old). The frontal cortex was rapidly dissected on ice and homogenized in 40 volumes of 0.32 M sucrose buffered at pH 7.4 with 0.01 M sodium phosphate. The homogenate was centrifuged at 1,000 g for 5 min. The crude synaptosomal pellet was obtained by centrifugation of the supernatant at 15,000 g for 20 min and was resuspended in 5 ml basal medium (125 mM Nacl, 3 mM KCI, 1.2 mM MgS04, 1.2 mM CaCl2, 1.0 mM NaH2PO4, 22 mM NaHCO3 and 10 mM glucose) which had been gassed with 95% O2 - 5% CO2 at 37 °C, pH 7.2 - 7.4.
Superfusion protocol: The synaptosomal suspension was incubated with [^3H]-choline (0.03 µM, 17.5x10^6 Bq/g) for 15 min at 37 °C. Then, the suspension was diluted (1:8) and aliquots were applied on filters in a continuous superfusion system with parallel chambers maintained at 37 °C. The media used for superfusion were basal medium and 15 mM K^+-containing stimulation medium. Both media were supplemented with ACh (1 µM) to facilitate the effectiveness of an allosteric potentiating ligand at the nicotine receptor and with atropine (0.1 µM) to block M2 presynaptic receptors. Synaptosomes were superfused with basal medium for 30 min to reach a constant outflow of [^3H]-ACh. Under these experimental conditions, the radioactivity released consisted largely of newly synthesized [^3H]-ACh. The K^+-stimulated release of [^3H]-ACh was determined in 2 subsequently collected fractions: 6 min basal release (superfusion with basal medium) and 6 min K^+-evoked release (superfusion for 1.5 min with 15 mM K^+-containing medium followed by […] basal medium). The test compounds galantamine, 4 and 2 were present in the superfusion medium concomitantly with 15 mM K^+ (for 1.5 min). Basal release of [^3H]-ACh (continuous superfusion with basal medium) was determined by collection of a 6 min sample followed by four subsequent 2 min samples. Aliquots of samples were mixed with scintillation liquid and the radioactivity quantified with a scintillation counter. The radioactivity bound to the filters was also measured.
Statistical analysis: The amount of [^3H]-ACh released in each sample was calculated as fraction of total synaptosomal tritium at the start of the respective collection period (tritium in the sample / sum of tritium in the respective fractions and in the synaptosomes on the filter). K^+-evoked release was expressed as percentage of basal release rate. Each n=1 represents the mean of an experiment with one synaptosomal preparation in at least 3 superfusion chambers. Statistical significance of group variances was calculated by one way ANOVA followed by Bonferroni's test.

[11] = system: extracellular ACh concentration in the nucleus accumbens; details: for 0AUC120 min (% increase x min) Mean ± SEM: 0 to 120 min; for Increase in ACh release (Peak increase as % of basal output): nucleus accumbens
[12] = molecular target: T6, σ receptors labelled by [^3H](+)-pentazocine (σ1) (Cavia porcellus, UniProt Q60492); test: Sigma receptor binding assay, [3H](+)-pentazocine; design: species or system guinea pig
T6 construct: from tissue; host or cells: guinea pig brain membranes
T6 sequence (Q60492 whole entry): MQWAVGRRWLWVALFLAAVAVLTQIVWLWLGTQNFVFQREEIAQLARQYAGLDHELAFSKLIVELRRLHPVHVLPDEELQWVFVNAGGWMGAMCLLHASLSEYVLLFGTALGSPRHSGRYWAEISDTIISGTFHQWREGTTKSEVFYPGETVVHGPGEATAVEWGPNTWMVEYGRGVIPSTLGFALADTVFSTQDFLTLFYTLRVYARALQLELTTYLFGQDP
Method: as §1

## CC(C)=CCN1CCC2(C)c3cc(O)ccc3CC1C2C (racemic) [(±)Pentazocine, reference compound]
[1]
  IC50: 54.6 ± 5.3 nM

## C=CCN1CC[C@]23CC(=O)CC[C@@]2(OC)[C@H]1Cc1cccc(OC)c13 [4,14-dimethoxy-N-allyl-morphinan-6-one]
[2]
  function at the µ opioid receptor: antagonistic function

## Oc1ccc2c3c1O[C@H]1c4[nH]c5ccccc5c4C[C@@]4(O)[C@@H](C2)N(CC2CC2)CC[C@]314 [naltrindole, reference compound]
[3]; compound 10 µM, SNC 80 10 µM
  effect on [35S]GTPγS binding stimulated by SNC 80: markedly decreased

## O=CN1CC[C@]23c4c5cccc4OC2C(=O)CC[C@H]3[C@H]1C5 (some centres unmarked) [4,5-epoxy-N-formylmorphinan-6-one]
[4]
  binding to opioid receptor δ (in words): does not bind
[5]
  binding to opioid receptor K (in words): does not bind
[6]
  binding to opioid receptor µ (in words): does not bind

## COc1cccc2c1[C@]13CCN(CC4CC4)[C@H](C2)[C@]1(OC)CCC(=O)C3 [cyprodime, reference compound]
[2]; compound 10 µM, DAMGO 10 µM, rat brain membranes
  effect on [35S]GTPγS binding stimulated by DAMGO: significantly decreased

## C=CCN1C[C@H](C)N([C@H](c2ccc(C(=O)N(CC)CC)cc2)c2cccc(OC)c2)C[C@H]1C [SNC 80, reference compound]
[3]; data not shown, read-out: Emax (% of basal activity)
  Emax: 137 ± 4%

## CN1[C@@H]2C[C@@H](OC(=O)[C@H](CO)c3ccccc3)C[C@H]1[C@@H]1O[C@@H]12 [Scopolamine, scopolamine, reference compound]
[7]
  object recognition, exploration ratio novel/familiar object: close to one
[8]; 0.033 µmol
  running time: only a moderate increase
  spontaneous alternation: profound decrease
[8]; dose series, bell-shaped curve, not shown
  running time: strong increase
[8]; dose series, not shown
  spontaneous alternation: dose-dependent reduction

## C=CCN1CC[C@]2(C)c3cc(O)ccc3C[C@H]1[C@H]2C [(+)-SKF-10,047, reference compound]
[1]
  IC50: 291 ± 14 nM

## Oc1ccc2c3c1O[C@H]1c4[nH]c5c(c4C[C@@]4(O)[C@@H](C2)N(CC2CC2)CC[C@]314)C[C@@]1(O)[C@H]2Cc3ccc(O)c4c3[C@@]1(CCN2CC1CC1)[C@H]5O4 [Nor-BNI, reference compound]
[9]
  effect on [35S]GTPγS binding stimulated by U69,593: highly effective in inhibiting

## COc1ccc2c3c1O[C@H]1C[C@@H](O)C=C[C@@]31CCN(C)C2 [Galantamine, galantamine, reference compound]
[10]
  concentration of maximal effect on stimulation-evoked ACh release: 1 µM
[11]; Dose 0.5 µmol i.c.v.
  0AUC120 min (% increase x min) Mean ± SEM: 642 ± 85 % increase x min
  Increase in ACh release (Peak increase as % of basal output): 118 ± 29 %
[11]; Dose 1 µmol i.c.v.
  0AUC120 min (% increase x min) Mean ± SEM: 1857 ± 173 % increase x min
  Increase in ACh release (Peak increase as % of basal output): 101 ± 42 %

## Nc1c2c(nc3ccccc13)CCCC2 [Tacrine, tacrine, reference compound]
[11]; rat, in vivo
  dose dependence of the increase in extracellular brain ACh: pronounced and dose-dependent increases

## CCCN1CCC[C@H](c2cccc(O)c2)C1 [(+)-3-PPP, reference compound]
[12]
  IC50: 68.2 ± 4.8 nM

## Cc1ccccc1NC(=N)Nc1ccccc1C [DTG, reference compound]
[1]
  IC50: 126 ± 5 nM

## O=CN1CC[C@]23CC(=O)CC[C@H]2[C@H]1CC1=C3C(=O)C=CC1=O [1,4-dione-N-formylmorphinan-6-one]
[4]
  binding to opioid receptor δ (in words): does not bind
[5]
  binding to opioid receptor K (in words): does not bind
[6]
  binding to opioid receptor µ (in words): does not bind
